Test results: patent US11324732B2, “Methods for the treatment of dyskinesia in cerebral palsy” (AUSPEX PHARMACEUTICALS, INC., priority 2018, dated 2022)

Legend:
patients with CP = conditions: cited from earlier work
[1] = system: pediatric patients diagnosed with DCP, predominant motor symptoms dystonic; experiment: Example 4: Phase 3 efficacy study, predominantly dystonic DCP; type: in vivo, human
Experimental: (§1) A Phase 3 study to evaluate the efficacy and safety of deutetrabenazine is performed on a population consisting of male and female patients, diagnosed with DCP. Patients may be included in the study only if they meet all of the following criteria: • 1. Patient is 6 through 18 years of age (inclusive) at baseline. • 2. Patient has had cerebral palsy (CP) symptoms since infancy (≤2 years). • 3. Patient has a diagnosis of DCP according to the Surveillance of Cerebral Palsy in Europe criteria. • 4. Patient has a total score of ≥10 on the MD-CRS part II items at the baseline visit, based on investigator scoring of chorea. • 5. Patient's symptoms are causing functional problems determined by a Clinical Global
Impression of Severity (CGI-S) score of 4 or greater based on investigator scoring. • 6. Patient's predominant motor symptoms are dystonic.
(§2) Patients will receive 6 mg to 48 mg of deutetrabenazine. The titration scheme and maximum dose follows the one in the parent study, Example 1, supra.

[2] = relative to tetrabenazine; U.S. Pat. No. 8,524,733; cited from earlier work
[3] = system: patients (age 6 through 18 years) with DCP with predominant choreiform movement disorder
[4] = system: children and adolescents with dyskinesia in cerebral palsy
[5] = system: adult patients diagnosed with DCP, choreiform predominant; experiment: Example 3: Phase 3 efficacy study in adults; type: in vivo, human
Experimental: as §1, with “older than” for “6 through”, “age” for “age (inclusive)”
Impression of Severity (CGI-S) score of 4 or greater based on investigator scoring. • 6. Choreiform is the predominant movement disorder as assessed by the EAB at screening.
as §2

[6] = versus placebo, from baseline to week 15

Nc1ccncc1 [Dalfampridine]
functional improvement (patients with CP): failed to demonstrate functional improvement

[2H]C([2H])([2H])Oc1cc2c(cc1OC([2H])([2H])[2H])[C@H]1CC(=O)[C@H](CC(C)C)CN1CC2 (racemic) [deutetrabenazine, (RR,SS)-1,3,4,6,7,11b-hexahydro-9,10-di(methoxy-d3)-3-(2-methylpropyl)-2H-benzo[a]quinolizin-2-one]
safety profile [1]: favorable safety profile | dystonic abnormal involuntary movements associated with dyskinesia in cerebral palsy ([1]; 6 mg to 48 mg): reduce dystonic abnormal involuntary movements | half-life of its active metabolites [2]: increased half-life | overall safety and efficacy of treatment ([3]; 6-48 mg/day oral, versus placebo): safe and effective | PGI-I response ([3]; Much Improved or Somewhat Improved in the PGI-I score): demonstrate a PGI-I response | CGI-I response ([3]; Much Improved or Very Much Improved in the CGI-I score): demonstrate a CGI-I response | CaGI-I response ([3]; Much Improved or Very Much Improved in the CaGI-I score): demonstrate a CaGI-I response | PEDI-CAT ([3]; activities of daily living, parent/caregiver completed): improvement | UHDRS-TMC ([3]; in vivo): significant reductions | UHDRS-TMD ([3]; in vivo): significant reductions | UHDRS-TMS ([3]; in vivo): significant reductions | safety by C-SSRS, ESRS, CBCL, ESS and lack of serious adverse events ([3]; in vivo): safe | CP module of the PedsQL ([3]; quality of life, patient/caregiver): significant reductions | CGI-S response ([3]; reduction of >1 point in the CGI-S score): demonstrate a CGI-S response | reduction in the CGI-I score [3, 6]: 0.5-0.7 points | reduction in the CaGI-I score [3, 6]: 0.5-0.7 points | reduction in the MD-CRS part I total score [3, 6]: 2-4 points | reduction in the MD-CRS part II total score [3, 6]: 0.5-4 points | all primary and secondary endpoints ([3]; versus placebo, week 15): significant improvements | safety profile ([4]; in vivo): favorable safety profile | abnormal involuntary movements associated with dyskinesia in cerebral palsy ([4]; long term administration of tolerable amounts): reduce abnormal involuntary movements | safety profile [5]: favorable safety profile | abnormal involuntary movements associated with dyskinesia in cerebral palsy ([5]; 6 mg to 48 mg): reduce abnormal involuntary movements
